In brackets after ≈: the same amount, converted by molar mass.
What was measured:
[1] = Aqueous solubility of quercetin without and with sulfated beta-cyclodextrin (UV absorbance at 375 nm); type: physicochemical; conditions: aqueous sulfated beta-cyclodextrin solution, aqueous with cosolvent or surfactant or cyclodextrin
Description: FIG. 8 depicts a graph of sulfated beta-cyclodextrin formed 1:1 complex with antioxidant quercetin, showing quercetin can be encapsulated in the gel. […] In the presence of sulfated beta-cyclodextrin, the absorbance increased. The sulfated beta-cyclodextrin can form 1:1 complex with quercetin through host-guest chemistry. […] Embedment of quercetin in hydrogel and its release: The sulfated beta-cyclodextrin in the crosslinked polymer hydrogel allows drug molecules, even hydrophobic compounds, to incorporate into it through host-guest interaction. An encapsulated-quercetin hydrogel film was prepared (FIG. 8). […] The high equilibrium binding constant of the sulfated β-cyclodextrin/quercetin complex (Kf=2.53×10^4 M^−1 at 25° C.) permits encapsulation of high concentration of quercetin in gel. The fabrication of the quercetin hydrogel is similar to that mentioned above, except for alternative sulfated beta-cyclodextrin with 1:1 sulfated beta-cyclodextrin/quercetin complex. The resultant hydrogel attained similar high fracture toughness and stretching ability in the presence of quercetin (FIG. 9).

[2] = 'as known'; cited from earlier work

O=c1c(O)c(-c2ccc(O)c(O)c2)oc2cc(O)cc(O)c12 [quercetin]
solubility ([1]; in 1 mM sulfated beta-cyclodextrin): 42 µM (≈ 12.7 µg/mL) | solubility ([1]; in 2 mM sulfated beta-cyclodextrin): 73 µM (≈ 22.1 µg/mL) | solubility in water [2]: ~1.3 µM (≈ 0.393 µg/mL)
